Patent US20040126338A1, “Process of converting trans-lutein into cis-lutein and the uses thereof” (priority 2002, published 2004)
Each block holds one compound with its values, some of them ahead of it.

Columns and labels:
[1] = Persistence of cis-isomers during heating or reflux, normal phase HPLC percent area; format: physicochemical
Experimental: (§1) The solvent solutions are refluxed in the following examples by placing the glass flask on a heating unit. A reflux column, which is cooled by non-recirculating cold water, is attached to the flask. The solution is then heated to the boiling point of the given liquid, except for propylene glycol, which boils at 187° C. The refluxing time varies slightly between solution samples. The refluxing times for each example are stated for each below. Samples are taken periodically to test the concentration of the cis-isomers, these are referred to as collected samples. Similarly, the oil solutions were heated in the following examples by placing the glass flask into a heated oil bath filled with mineral oil, which was stirred constantly, at 72° C.
Storing and centrifuging refers to the collected samples being placed into 12×75 mm glass culture tubes and wrapped with Parafilm® (Pechiney Plastic Packaging) and stored in a freezer until analysis. When prepped for analysis the collected samples are first warmed to room temperature and then the aliquot is centrifuged at 12,000 rpm for 5 minutes to remove trans-isomers crystals. The trans-isomer crystals are removed because the cis-isomers of lutein are known to be more soluble than the trans-isomers, which will allow them to remain in solution once formed. Next 1 ml of the centrifuged collected sample is placed into a High Performance Liquid Chromotography (HPLC) vial for analysis.
Analysis of the solutions formed from lutein and a liquid are analyzed using both normal phase HPLC and a spectophotometer. For the HPLC analysis, 1 ml of the collected sample of each solution is filtered through a 0.45 micron syringe filter into a HPLC sample vial. The sample is first dried using a nitrogen stream and then the remaining solids are dissolved in a 1 ml of a 65:35 hexane:ethylacetate mixture. […] In this way the percent area of the lutein cis-isomer peak is determined.

[2] = cited from earlier work
[3] = test system: age-related macular degeneration; settings: consumption of lutein and zeaxanthin; cited from earlier work
[4] = Carotenoid content of lutein heated in oils at 72° C., UV-Vis absorbance at 446 nm; format: physicochemical
Experimental: as §1
In this preparation a solution was made using 2 g of lutein dry cake and 20 ml of oil. The solution was heated in an oil bath. […] As before, samples were analyzed qualitatively using normal phase HPLC and spectophotometer. However, quantitative analysis was also performed, by taking 1 ml of the HEAT (hexane, ethanol, acetone and toluene) solution previously prepared, diluting it to 25 ml in ethanol, and determining the absorbance on an UV-Vis absorption spectrophotometer. This type of analysis is often useful for quantitative measurements. All of the thyme oil samples required a 1:20 dilution of the ethanol solution before reading on the UV-Vis.

[5] = Observed solubility of lutein dry cake in oils; format: physicochemical
Experimental: Using an analytical balance, the preparation of solution for the following examples for cis-isomerization includes placing weighed dry cake lutein into a flask and adding one of the above liquids to the flask to form the solution. The solution is first hand swirled and its solubility is observed. Following a baseline sample, which is taken at the 0 hour mark, the prepared lutein solution is placed on a heat source and refluxed for a period of time ranging between 0-120 hours.
The purpose of this preparation is to analyze the effect of heat on a solution of lutein in the above stated oils and determine whether isomerization from trans-lutein to various cis-isomers occurs, and the concentration of each isomer that is formed. The oils used in this example were corn oil, which was used as a control, corn mint oil, spearmint oil, peppermint oil, tea tree oil, and bay oil. […] The solutions were made by adding 20 ml of oil to the weighed lutein. The sample heated in an oil bath. A baseline 2 ml sample was taken and additional 2 ml samples taken at 1, 4, 8, 24, and 48 hours.
In this preparation a solution was made using 2 g of lutein dry cake and 20 ml of oil. The solution was heated in an oil bath. Samples (2 ml) were taken at 0, 1, 4, 6.5, 24, and 48 hours. As before, samples were analyzed qualitatively using normal phase HPLC and spectophotometer. However, quantitative analysis was also performed, by taking 1 ml of the HEAT (hexane, ethanol, acetone and toluene) solution previously prepared, diluting it to 25 ml in ethanol, and determining the absorbance on an UV-Vis absorption spectrophotometer. This type of analysis is often useful for quantitative measurements. All of the thyme oil samples required a 1:20 dilution of the ethanol solution before reading on the UV-Vis.
Samples containing 25% solutions were prepared using 2.5 g dry cake lutein and 10 ml of liquid. The liquid used in solution was from the group consisting of corn oil, diH2O, or Spectrum brand white thyme oil. The “dry” sample contained 2.5 g dry cake lutein and was preformed without the addition of any liquid. […]

[6] = Room temperature saturation limit and solubility on heating of lutein dry cake in solvents; format: physicochemical; settings: for Room temp. sataturation limit (%): room temperature
Experimental: The purpose of this preparation is to analyze the effect of heat on a solution of lutein in four solvents, hexane, ethanol, isopropanol, and acetone, to determine whether isomerization from trans-isomers of lutein to various cis-isomers occurs, and what concentration of each isomer is formed. The solutions were prepared using 100 ml of the above stated solvents to dissolve varying weights of lutein dry cake. Initial solubility limits ere tested by adding a small amount of dry cake and swirling the flask briefly. If the sample appeared saturated, it was centrifuged to verify that a pellet of undissolved material was formed. If the solution was not saturated, additional dry cake was added until saturation was reached. Once the approximate solubility at room temperature was determined for each solvent, excess dry cake was added for the increased solubility that occurs through heating and isomerization, in order to maintain saturation during the entire experiment.

[7] = among carotenoids; cited from earlier work
prostate cancer = settings: in vivo; cited from earlier work
[8] = Cis-isomer content of supernatants versus pellets of the isopropanol solution; format: physicochemical
Experimental: The purpose of this preparation was to analyze the effect of isopropanol in solution with lutein, and analyze the effect of adding water to the lutein/isopropanol solution. In this example a solution was prepared by adding 2.51 g of dry cake lutein (lot 082405-08) to 50 ml isopropanol to a flask. The prepared solution was swirled and refluxed at 81° C. for 8 hours.
Samples were taken at 0, 1, 4, 6, and 8 hours to follow the isomerization. At 8 hours the sample was transferred to a 150 ml Erlenmeyer flask and placed in a freezer to cool. When partially cooled, aliquots were taken for precipitation and samples were diluted to 2:1, 1:1, and 1:2 ratios of water:isopropanol. An additional sample was prepared which contained only isopropanol solution. The samples were vortexed and centrifuged. Supernatant and pellets were collected and stored in a 1.5 ml microfuge tube until analysis.

[9] = UV absorption spectra of cis-lutein and trans-lutein; format: physicochemical
From the text: FIG. 5 is a graph of the trans-lutein spectrum.
FIG. 6 is a graph of the cis-lutein spectrum.

stability ([1]; Example 4 thyme oils at 72° C., 4-48 hours): appears to be stable
Compound: CC(C=CC=C(C)C=CC1=C(C)CC(O)CC1(C)C)=CC=CC=C(C)C=CC=C(C)C=CC1C(C)=CC(O)CC1(C)C (single isomer, unassigned) [13,13′ cis-isomer, 13,13′ cis-lutein]
stability for extended periods ([1]; Example 3 oils at 72° C., concentration declines after 24 hour sample): did not appear to be highly stable for extended periods

Compound: CC1=C[C@H](O)CC(C)(C)[C@H]1/C=C/C(C)=C/C=C/C(C)=C/C=C/C=C(C)/C=C/C=C(C)/C=C/C1=C(C)C[C@@H](O)CC1(C)C (single isomer, unassigned) [trans-isomers of lutein, trans-lutein]
stability in crystalline forms ([2]; crystalline forms): stable in crystalline forms

Compound: CC1=C(/C=C/C(C)=C/C=C/C(C)=C/C=C/C=C(C)/C=C/C=C(C)/C=C/C2=C(C)C[C@@H](O)CC2(C)C)C(C)(C)C[C@H](O)C1 [Zeaxanithin, zeaxanthin]
reduction in age-related macular degeneration [3]: 57%

carotenoid concentration observed ([4]; thyme oil, predicted concentration 10%): 7.18%
solubility in corn oil compared with thyme oils ([5]; Example 4, 2 g dry cake in 20 ml oil): least soluble in corn oil
Room temp. sataturation limit (%) ([6]; in acetone): ˜0.45%
Room temp. sataturation limit (%) ([6]; in ethanol): ˜0.3%
Room temp. sataturation limit (%) ([6]; in hexane): <1%
solubility when the solution was heated ([6]; in isopropanol, reflux): increased dramatically
Room temp. sataturation limit (%) ([6]; in isopropanol): ˜0.2%
Compound: CC1=C[C@H](O)CC(C)(C)[C@H]1/C=C/C(C)=C/C=C/C(C)=C/C=C/C=C(C)/C=C/C=C(C)/C=C/C1=C(C)C[C@@H](O)CC1(C)C [lutein dry cake, lutein]

time for which lutein was stable (carotenoid content) ([4]; in thyme oil): about 6.5 hours
solubility when heated in white thyme oil ([5]; Example 5, 25% w/v, Spectrum white thyme oil): good solubility
Compound: CC1=C[C@H](O)CC(C)(C)[C@H]1/C=C/C(C)=C/C=C/C(C)=C/C=C/C=C(C)/C=C/C=C(C)/C=C/C1=C(C)C[C@@H](O)CC1(C)C [lutein]
solubility in corn oil compared with the other oils ([5]; Example 3, corn mint, spearmint, peppermint, tea tree and bay oil, 3 mg or 4 mg in 20 ml): less soluble in corn oil than in the other oils
reduction in age-related macular degeneration [3]: 57%

Compound: CC(C)=CCC/C(C)=C/C=C/C(C)=C/C=C/C(C)=C/C=C/C=C(C)/C=C/C=C(C)/C=C/C=C(\C)CCC=C(C)C [lycopene]
oxygen quenching [7]: best carotenoid oxygen quencher
reducing the risk of prostate cancer (prostate cancer): active in reducing the risk of prostate cancer

Compound: cis-lutein [cis-isomers of lutein]
solubility compared with trans-isomers [8]: higher than trans-isomers
stability of the cis-isomer formed ([1]; propylene glycol reflux (75° C.), content decreased after four hours): not stable
ultraviolet light (UV) absorption compared with trans-isomer lutein [9]: higher
stability upon reflux in ethanol ([2]; reflux in ethanol): easily reverted to the more thermodynamically stable trans-isomers
